Measured values published in patent US20240018145A1, “[…]-DEPENDENT EN[…] TREATING OR […]” (priority 2020, published 2024).

The compounds below were run on FLU A (PR/8/34) (assay: Flu A Neuraminidase Antiviral Assay). Details: not given.
Type: cell-based

How did the EC50 turn out when CN1C(=O)c2c(O)c(=O)ccn2N2C1CCCC2(C)c1ccccc1Cl (single isomer, unassigned) [Compound 20A, 1-(2-chlorophenyl)-7-hydroxy-1,5-dimethyl-1,2,3,4,4a,5-hexahydrodipyrido[1,2-b:2′,1′-f][1,2,4]triazine-6,8-dione] was run?
Its EC50 is 564 nM.

How did the EC50 turn out when CCN1C(=O)c2c(O)c(=O)ccn2N2C(c3ccccc3C)C(CCC(F)F)CCC12 (single isomer, unassigned) [Compound 102A, 2-(3,3-difluoropropyl)-5-ethyl-7-hydroxy-1-(o-tolyl)-1,2,3,4,4a,5-hexahydrodipyrido[1,2-b:2′,1′-f][1,2,4]triazine-6,8-dione] was run?
Its EC50 is 2.9 nM.

With CN1C(=O)c2c(O)c(=O)ccn2N2C1CCC1(CCC(C(F)(F)F)CC1)C2c1ccccc1 (single isomer, unassigned) [Compound 73B, 7′-hydroxy-5′-methyl-1′-phenyl-4-(trifluoromethyl)-3′,4′,4a′,5′-tetrahydro-1′H-spiro[cyclohexane-1,2′-dipyrido[1,2-b:2′,1′-f][1,2,4]triazine]-6′,8′-dione] as the compound, how does the EC50 read?
The EC50 was > 810 nM.

CN1C(=O)c2c(O)c(=O)ccn2N2C1CCC1(CCC(F)(F)C1)C2c1ccccc1 (single isomer, unassigned) [Compound 68D, 3,3-difluoro-7′-hydroxy-5′-methyl-1′-phenyl-3′,4′,4a′,5′-tetrahydro-1′H-spiro[cyclopentane-1,2′-dipyrido[1,2-b:2′,1′-f][1,2,4]triazine]-6′,8′-dione] was tested. Which EC50 did it give?
Its EC50 is 11.8 nM.

With CN1C(=O)c2c(O)c(=O)ccn2N2C1CCCC2(C)c1ccc(F)cc1 (single isomer, unassigned) [Compound 26B, 1-(4-fluorophenyl)-7-hydroxy-1,5-dimethyl-1,2,3,4,4a,5-hexahydrodipyrido[1,2-b:2′,1′-f][1,2,4]triazine-6,8-dione] as the compound, how does the EC50 read?
The EC50 was 1800 nM.

With C=CCC1CCC2N(C)C(=O)c3c(O)c(=O)ccn3N2C1c1ccccc1Cl (stereo not shown) [Compound 64A, 2-allyl-1-(2-chlorophenyl)-7-hydroxy-5-methyl-1,2,3,4,4a,5-hexahydrodipyrido[1,2-b:2′,1′-f][1,2,4]triazine-6,8-dione] as the compound, how does the EC50 read?
Its EC50 is 3790 nM.

With CC1(c2cc(C(F)(F)F)ccn2)CCCC2N(CC3(C(F)(F)F)CC3)C(=O)c3c(O)c(=O)ccn3N21 (single isomer, unassigned) [Compound 52B, 7-hydroxy-1-methyl-5-((1-(trifluoromethyl)cyclopropyl)methyl)-1-(4-(trifluoromethyl)pyridin-2-yl)-1,2,3,4,4a,5-hexahydrodipyrido[1,2-b:2′,1′-f][1,2,4]triazine-6,8-dione] as the compound, how does the EC50 read?
Its EC50 is > 2700 nM.

How did the EC50 turn out when Cc1ccccc1C1C(c2ccc(F)c(F)c2)CCC2N(C)C(=O)c3c(O)c(=O)ccn3N12 (single isomer, unassigned) [Compound 91B, 2-(3,4-difluorophenyl)-7-hydroxy-5-methyl-1-(o-tolyl)-1,2,3,4,4a,5-hexahydrodipyrido[1,2-b:2′,1′-f][1,2,4]triazine-6,8-dione] was run?
Its EC50 is 7.3 nM.

CN1C(=O)c2c(O)c(=O)ccn2N2C1CCCC2(C)c1ncc(F)cc1F (single isomer, unassigned) [Compound 46A, 1-(3,5-difluoropyridin-2-yl)-7-hydroxy-1,5-dimethyl-1,2,3,4,4a,5-hexahydrodipyrido[1,2-b:2′,1′-f][1,2,4]triazine-6,8-dione] was tested. Which EC50 did it give?
Its EC50 is 40.3 nM.

For CN1C(=O)c2c(O)c(=O)ccn2N2C(c3ccccc3)CCCCC12 (single isomer, unassigned) [Compound 57B, 4-hydroxy-6-methyl-11-phenyl-6a,7,8,9,10,11-hexahydro-3H-pyrido[1′,2′:1,6][1,2,4]triazino[2,3-a]azepine-3,5(6H)-dione], which EC50 is on record?
Its EC50 is > 8100 nM.

Which EC50 does the source give for CN1C(=O)c2c(O)c(=O)ccn2N2C1CCCC2(C)c1cccc(Cl)c1 (single isomer, unassigned) [Compound 28A, 1-(3-chlorophenyl)-7-hydroxy-1,5-dimethyl-1,2,3,4,4a,5-hexahydrodipyrido[1,2-b:2′,1′-f][1,2,4]triazine-6,8-dione] here?
Its EC50 is 5.2 nM.

How did the EC50 turn out when CC1(c2ccccc2)CCCC2N(CC3CC3)C(=O)c3c(O)c(=O)ccn3N21 (single isomer, unassigned) [Compound 37A, 5-(cyclopropylmethyl)-7-hydroxy-1-methyl-1-phenyl-1,2,3,4,4a,5-hexahydrodipyrido[1,2-b:2′,1′-f][1,2,4]triazine-6,8-dione] was run?
The EC50 was 11.4 nM.

Cc1cccc(F)c1C1C(CC(F)(F)F)CCC2N(C)C(=O)c3c(O)c(=O)ccn3N12 (single isomer, unassigned) [Compound 77D, 1-(2-fluoro-6-methylphenyl)-7-hydroxy-5-methyl-2-(2,2,2-trifluoroethyl)-1,2,3,4,4a,5-hexahydrodipyrido[1,2-b:2′,1′-f][1,2,4]triazine-6,8-dione] was tested. Which EC50 did it give?
Its EC50 is 1.9 nM.

With O=C1c2c(O)c(=O)ccn2N2C(c3ccccc3)C(CCC(F)(F)F)CCC2N1CC1CC1 (single isomer, unassigned) [Compound 100A, 5-(cyclopropylmethyl)-7-hydroxy-1-phenyl-2-(3,3,3-trifluoropropyl)-1,2,3,4,4a,5-hexahydrodipyrido[1,2-b:2′,1′-f][1,2,4]triazine-6,8-dione] as the compound, how does the EC50 read?
The EC50 was > 810 nM.

Which EC50 does the source give for CN1C(=O)c2c(O)c(=O)ccn2N2C(c3ccccc3)C(c3ccc(F)c(F)c3F)CCC12 (single isomer, unassigned) [Compound 85A, 7-hydroxy-5-methyl-1-phenyl-2-(2,3,4-trifluorophenyl)-1,2,3,4,4a,5-hexahydrodipyrido[1,2-b:2′,1′-f][1,2,4]triazine-6,8-dione] here?
Its EC50 is > 810 nM.

With CN1C(=O)c2c(O)c(=O)ccn2N2C(c3ccccc3)C(CC(F)F)CCC12 (single isomer, unassigned) [Compound 129C, 2-(2,2-difluoroethyl)-7-hydroxy-5-methyl-1-phenyl-1,2,3,4,4a,5-hexahydrodipyrido[1,2-b:2′,1′-f][1,2,4]triazine-6,8-dione] as the compound, how does the EC50 read?
Its EC50 is 6.6 nM.

How did the EC50 turn out when Cc1ccccc1C1C(CCC(F)(F)F)CCC2N(C)C(=O)c3c(O)c(=O)ccn3N12 (single isomer, unassigned) [Compound 95A, 7-hydroxy-5-methyl-1-(o-tolyl)-2-(3,3,3-trifluoropropyl)-1,2,3,4,4a,5-hexahydrodipyrido[1,2-b:2′,1′-f][1,2,4]triazine-6,8-dione] was run?
Its EC50 is 137 nM.

CN1C(=O)c2c(O)c(=O)ccn2N2C(c3ccccc3)C(CC3CC3(F)F)CCC12 (single isomer, unassigned) [Compound 114D, 2-((2,2-difluorocyclopropyl)methyl)-7-hydroxy-5-methyl-1-phenyl-1,2,3,4,4a,5-hexahydrodipyrido[1,2-b:2′,1′-f][1,2,4]triazine-6,8-dione] was tested. Which EC50 did it give?
Its EC50 is 2.3 nM.

How did the EC50 turn out when CCN1C(=O)c2c(O)c(=O)cc(COC)n2N2C(c3ccccc3)C(CC(F)(F)F)CCC12 (stereo not shown) [Compound 131C, 5-ethyl-7-hydroxy-10-(methoxymethyl)-1-phenyl-2-(2,2,2-trifluoroethyl)-1,2,3,4,4a,5-hexahydrodipyrido[1,2-b:2′,1′-f][1,2,4]triazine-6,8-dione] was run?
Its EC50 is > 810 nM.

For CCN1C(=O)c2c(O)c(=O)ccn2N2C(c3ccccc3)C(CC3(C(F)(F)F)CC3)CCC12 (single isomer, unassigned) [Compound 97A, 5-ethyl-7-hydroxy-1-phenyl-2-((1-(trifluoromethyl)cyclopropyl)methyl)-1,2,3,4,4a,5-hexahydrodipyrido[1,2-b:2′,1′-f][1,2,4]triazine-6,8-dione], which EC50 is on record?
The EC50 was > 810 nM.

CN1C(=O)c2c(O)c(=O)ccn2N2C1CCC1(CCCC(F)(F)C1)C2c1ccccc1 (single isomer, unassigned) [Compound 75A, 3,3-difluoro-7′-hydroxy-5′-methyl-1′-phenyl-3′,4′,4a′,5′-tetrahydro-1′H-spiro[cyclohexane-1,2′-dipyrido[1,2-b:2′,1′-f][1,2,4]triazine]-6′,8′-dione] was tested. Which EC50 did it give?
The EC50 was > 810 nM.

How did the EC50 turn out when CN1C(=O)c2c(O)c(=O)ccn2N2C1CCCC21CCc2ccccc21 (single isomer, unassigned) [Compound 21D, 7-hydroxy-5-methyl-2′,3,3′,4,4a,5-hexahydro-2H-spiro[dipyrido[1,2-b:2′,1′-f][1,2,4]triazine-1,1′-indene]-6,8-dione] was run?
The EC50 was 1550 nM.

Which EC50 does the source give for CN1C(=O)c2c(O)c(=O)ccn2N2C(c3ccccc3C(F)(F)F)CCC12 (single isomer, unassigned) [Compound 15B, 6-hydroxy-4-methyl-1-(2-(trifluoromethyl)phenyl)-2,3,3a,4-tetrahydro-1H-pyrido[2,1-f]pyrrolo[1,2-b][1,2,4]triazine-5,7-dione] here?
The EC50 was 1450 nM.

Which EC50 does the source give for CN1C(=O)c2c(O)c(=O)ccn2N2C1CCC(C)(C)C2(C)c1ccccc1 (single isomer, unassigned) [Compound 35B, 7-hydroxy-1,2,2,5-tetramethyl-1-phenyl-1,2,3,4,4a,5-hexahydrodipyrido[1,2-b:2′,1′-f][1,2,4]triazine-6,8-dione] here?
Its EC50 is > 8100 nM.

For CN1C(=O)c2c(O)c(=O)ccn2N2C(c3cccc(F)c3)C(CC(F)(F)F)CCC12 (single isomer, unassigned) [Compound 121A, 1-(3-fluorophenyl)-7-hydroxy-5-methyl-2-(2,2,2-trifluoroethyl)-1,2,3,4,4a,5-hexahydrodipyrido[1,2-b:2′,1′-f][1,2,4]triazine-6,8-dione], which EC50 is on record?
The EC50 was 431 nM.

Same assay, conditions: MDCK, 48 h

How did the EC50 turn out when CN1C(=O)c2c(O)c(=O)ccn2N2[C@H](c3ccccc3)[C@H](OCc3ccc(F)c(F)c3)CC[C@@H]12 [Compound 157, (1R,2R,4aS)-2-((3,4-difluorobenzyl)oxy)-7-hydroxy-5-methyl-1-phenyl-1,2,3,4,4a,5-hexahydrodipyrido[1,2-b:2′,1′-f][1,2,4]triazine-6,8-dione] was run?
The EC50 was 336 nM.

How did the EC50 turn out when CN1C(=O)c2c(O)c(=O)ccn2N2C(c3cccc(OC(F)F)c3)CCCC12 (single isomer, unassigned) [Compound 12A, 1-(3-(difluoromethoxy)phenyl)-7-hydroxy-5-methyl-1,2,3,4,4a,5-hexahydrodipyrido[1,2-b:2′,1′-f][1,2,4]triazine-6,8-dione] was run?
The EC50 was > 8100 nM.

Which EC50 does the source give for COC1(c2ccccc2)CCCC2C1n1ccc(=O)c(O)c1C(=O)N2C (stereo not shown) [Compound 167, 7-hydroxy-1-methoxy-5-methyl-1-phenyl-1,3,4,4a,5,11a-hexahydro-2H-pyrido[1,2-a]quinoxaline-6,8-dione] here?
Its EC50 is 109 nM.
